From ChEMBL document CHEMBL2303647, “Data associated with the publication PLoS ONE, 8(3), e57888, (2013) PMID: 23505445. Compounds: GSK PKIS; Assays: NIH NCATS”
“Also recorded” adds a separate entry of the source.

Assays:
[1] = biological target: Luciferin 4-monooxygenase (Photinus pyralis, UniProt P08659)
Description: GSK_PKIS: Inhibition of Firefly Luciferase (Data from PubChem: AID 652016) [NIH NCATS]

[2] = biological target: T1, Coelenterazine h 2-monooxygenase (Renilla reniformis, UniProt P27652)
T1 sequence (P27652 whole entry): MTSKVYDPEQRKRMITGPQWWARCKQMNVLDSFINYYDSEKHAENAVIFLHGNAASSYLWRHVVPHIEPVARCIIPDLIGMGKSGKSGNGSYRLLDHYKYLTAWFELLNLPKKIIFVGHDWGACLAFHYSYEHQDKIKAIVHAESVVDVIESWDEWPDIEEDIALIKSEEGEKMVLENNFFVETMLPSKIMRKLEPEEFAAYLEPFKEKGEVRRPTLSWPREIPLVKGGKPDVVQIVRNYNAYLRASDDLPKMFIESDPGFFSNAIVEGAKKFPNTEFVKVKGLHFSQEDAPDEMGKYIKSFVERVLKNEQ
Description: GSK_PKIS: Inhibition of Sea Pansy Luciferase (Data from PubChem: AID 652015) [NIH NCATS]

Luciferin 4-monooxygenase, sequence (P08659 whole entry): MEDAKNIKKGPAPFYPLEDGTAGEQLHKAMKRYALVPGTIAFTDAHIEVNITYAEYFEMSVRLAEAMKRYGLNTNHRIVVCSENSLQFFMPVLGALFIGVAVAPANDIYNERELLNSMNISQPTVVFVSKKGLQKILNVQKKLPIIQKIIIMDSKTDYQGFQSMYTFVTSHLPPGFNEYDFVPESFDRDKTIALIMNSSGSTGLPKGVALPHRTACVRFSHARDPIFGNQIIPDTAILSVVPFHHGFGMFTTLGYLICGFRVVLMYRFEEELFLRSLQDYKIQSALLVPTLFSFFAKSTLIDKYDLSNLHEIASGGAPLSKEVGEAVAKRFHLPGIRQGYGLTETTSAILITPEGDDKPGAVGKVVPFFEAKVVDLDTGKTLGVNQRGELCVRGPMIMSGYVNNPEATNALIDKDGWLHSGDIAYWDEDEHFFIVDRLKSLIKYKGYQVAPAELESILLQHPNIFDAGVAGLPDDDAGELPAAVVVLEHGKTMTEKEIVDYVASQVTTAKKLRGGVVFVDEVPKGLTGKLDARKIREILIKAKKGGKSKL

## COc1cc2c(cc1Nc1nc(Nc3cccc(F)c3C(N)=O)c3cc[nH]c3n1)N(C(=O)CN1CCN(C(C)C)CC1)CC2 [GSK-1751853A]
[1]
  AC50: Phenotype: Inactive; Curve_Description: None
[2]; read-out: AC50
  AC50: 36.6 µM

## CN(C)c1cc2c(Nc3ccc4nc(Cc5ccccc5)[nH]c4c3)ncnc2cn1 [GW301888X]
[1]; read-out: AC50
  AC50: 16.3 µM
[2]; read-out: AC50
  AC50: 18.3 µM

## COc1ccc(-c2cc3c(N)ncnc3o2)cc1 [GW642138X]
[1]; read-out: AC50
  AC50: 6.51 µM
[2]
  AC50: Phenotype: Inactive; Curve_Description: None

## CC1=C(C(=O)Nc2ccc3[nH]ncc3c2)C(c2ccc(Cl)c(Cl)c2)CC(=O)N1 (stereo not drawn) [GSK-299115A]
[1]
  AC50: Phenotype: Inactive; Curve_Description: None
[2]
  AC50: Phenotype: Inactive; Curve_Description: None

## Fc1cccc(COc2ccc(Nc3ncnc4sc(-c5cccs5)cc34)cc2Cl)c1 [GW684626B]
[1]
  AC50: Phenotype: Inactive; Curve_Description: None
[2]
  AC50: Phenotype: Inactive; Curve_Description: None

## CN1CCN(Cc2ccc(-c3cc4ncnc(Nc5ccc(OCc6cccc(F)c6)c(Cl)c5)c4s3)o2)CC1 [GW784684X]
[1]
  AC50: Phenotype: Inactive; Curve_Description: None
[2]; read-out: AC50
  AC50: 20.6 µM

## N#Cc1c(NC(=O)CN2CCOCC2)sc2c1CCCC2.O=C(O)C(=O)O
[1]
  AC50: Phenotype: Inactive; Curve_Description: None
[2]
  AC50: Phenotype: Inactive; Curve_Description: None

## CN(C)C(=O)O[C@@H]1CN[C@@H](C#Cc2cc3ncnc(Nc4ccc(OCc5cccc(F)c5)c(Cl)c4)c3s2)C1 [GSK-238063A]
[1]; read-out: AC50
  AC50: 32.6 µM
[2]
  AC50: Phenotype: Inactive; Curve_Description: None

## CC1=C(C(=O)Nc2ccc3[nH]ncc3c2)C(c2ccc(F)cc2)NC(=O)N1 (stereo not drawn) [GSK-180736A]
[1]
  AC50: Phenotype: Inactive; Curve_Description: None
[2]
  AC50: Phenotype: Inactive; Curve_Description: None

## CN(C)C(=O)O[C@H]1CN[C@H](C#Cc2cc3ncnc(Nc4ccc(OCc5cccc(F)c5)c(Cl)c4)c3s2)C1 [GSK-182497A]
[1]; read-out: AC50
  AC50: 29.1 µM
[2]
  AC50: Phenotype: Inactive; Curve_Description: None

## CCN(CC)S(=O)(=O)c1ccc(OC)c(Nc2ncc(-c3ccccc3)o2)c1 [GW572401X]
[1]
  AC50: Phenotype: Inactive; Curve_Description: None
[2]
  AC50: Phenotype: Inactive; Curve_Description: None

## CNC(=O)c1cncc(/C=C/c2ccccc2Cl)c1 [GW445017X]
[1]; read-out: AC50
  AC50: 9.19 µM
[2]
  AC50: Phenotype: Inactive; Curve_Description: None

## NS(=O)(=O)c1ccc(N/N=C2\C(=O)Nc3ccc4ncccc4c32)cc1 [GW305178X]
[1]; read-out: AC50
  AC50: 29.1 µM
[2]; read-out: AC50
  AC50: 23.1 µM

## c1cnn2ncc(-c3ccnc(NCCCN4CCOCC4)n3)c2c1 [GW683109X]
[1]; read-out: AC50
  AC50: 41.1 µM
[2]
  AC50: Phenotype: Inactive; Curve_Description: None

## COc1cccc(-c2c[nH]c3c(N/N=C/c4ccncc4)ncnc23)c1 [GW814408X]
[1]; read-out: AC50
  AC50: 5.8 µM
[2]
  AC50: Phenotype: Inactive; Curve_Description: None

## NS(=O)(=O)c1ccc(N/N=C2\C(=O)Nc3ccc(C(=O)NCCc4c[nH]cn4)cc32)cc1 [GW300660X]
[1]
  AC50: Phenotype: Inactive; Curve_Description: None
[2]; read-out: AC50
  AC50: 16.3 µM

## NS(=O)(=O)c1ccc(Nc2cc(-c3cccc(O)c3)n[nH]2)cc1 [GW831090X]
[1]; read-out: AC50
  AC50: 20.6 µM
[2]
  AC50: Phenotype: Inactive; Curve_Description: None

## Cc1cc(Cl)cc2c1NC(=O)C2=NNc1ccc(S(N)(=O)=O)cc1 [GW279320X]
[1]
  AC50: Phenotype: Inactive; Curve_Description: None
[2]; read-out: AC50
  AC50: 29.1 µM

## Cl.O=C(Nc1ccc(Oc2ccc3[nH]c(NC(=O)c4ccco4)nc3c2)cc1)Nc1cc(C(F)(F)F)ccc1F [GW683134A]
[1]; read-out: AC50
  AC50: 20.6 µM
[2]
  AC50: Phenotype: Inactive; Curve_Description: None

## N#Cc1c(NC(=O)c2cccc3ccccc23)sc2c1CCCC2 [GW620972X]
[1]; read-out: AC50
  AC50: 18.3 µM
[2]
  AC50: Phenotype: Inactive; Curve_Description: None

## C[C@@H](Oc1cc(-n2cnc3ccc(OCC4CCN(C)CC4)cc32)sc1C(N)=O)c1ccccc1C(F)(F)F [GSK-326090A]
[1]
  AC50: Phenotype: Inactive; Curve_Description: None
[2]; read-out: AC50
  AC50: 25.9 µM

## CCOc1ccc2c(-c3ccnc(Nc4cccc(C(F)(F)F)c4)n3)cnn2n1 [GW811761X]
[1]
  AC50: Phenotype: Inactive; Curve_Description: None
[2]
  AC50: Phenotype: Inactive; Curve_Description: None

## Cc1ccc2c(-c3ccnc(Nc4ccc5c(c4)OCCO5)n3)c(-c3ccc(C(F)(F)F)cc3)nn2n1 [GW832467X]
[1]
  AC50: Phenotype: Inactive; Curve_Description: None
[2]
  AC50: Phenotype: Inactive; Curve_Description: None

## CC1=C(C(=O)Nc2ccc3[nH]ncc3c2)C(c2ccc3ccccc3c2)CC(=O)N1 (stereo not drawn) [GSK-270822A]
[1]; read-out: AC50
  AC50: 41.1 µM
[2]
  AC50: Phenotype: Inactive; Curve_Description: None

## NS(=O)(=O)c1ccc(Nc2ncc(-c3ccccc3)o2)cc1 [GW572399X]
[1]
  AC50: Phenotype: Inactive; Curve_Description: None
[2]
  AC50: Phenotype: Inactive; Curve_Description: None

## Nc1nc(-c2cccc(Cl)c2)c(-c2ccc3ncccc3n2)s1 [GW780159X]
[1]
  AC50: Phenotype: Inactive; Curve_Description: None
[2]
  AC50: Phenotype: Inactive; Curve_Description: None

## Cc1cc(O)cc(C)c1/C=C/c1cncc(C(=O)OC(C)(C)C)c1 [GW439255X]
[1]
  AC50: Phenotype: Inactive; Curve_Description: None
[2]
  AC50: Phenotype: Inactive; Curve_Description: None

## COc1cc2ncn(-c3cc(O[C@H](C)c4ccccc4Cl)c(C(N)=O)s3)c2cc1OC [GSK-237701A]
[1]
  AC50: Phenotype: Inactive; Curve_Description: None
[2]; read-out: AC50
  AC50: 3.66 µM

## Fc1ccc(Nc2nccc(-c3c(-c4ccc(C(F)(F)F)cc4)nn4ncccc34)n2)cc1F [GW828529X]
[1]
  AC50: Phenotype: Inactive; Curve_Description: None
[2]
  AC50: Phenotype: Inactive; Curve_Description: None

## CS(=O)(=O)CCNCc1ccc(-c2ccc3ncnc(Nc4ccc(OCc5ccccc5)c(Cl)c4)c3c2)o1.Cl [GW574783B]
[1]; read-out: AC50
  AC50: 20.6 µM
[2]
  AC50: Phenotype: Inactive; Curve_Description: None

## Cl.Nc1nccc(-c2c(-c3ccc(F)cc3)ncn2C2CCNCC2)n1
[1]
  AC50: Phenotype: Inactive; Curve_Description: None
[1]; read-out: AC50
  AC50: 23.1 µM
[2]
  AC50: Phenotype: Inactive; Curve_Description: None; also recorded: Phenotype: Activator; Curve_Description: None

## Cl.N#Cc1cccc(Nc2ncc(-c3ccccc3)o2)c1 [GW627834A]
[1]; read-out: AC50
  AC50: 1.03 µM
[2]
  AC50: Phenotype: Inactive; Curve_Description: None

## CCNC(=O)O[C@H]1CN[C@H](C#Cc2cc3ncnc(Nc4ccc(OCc5cccc(F)c5)c(Cl)c4)c3s2)C1 [GSK-192082A]
[1]
  AC50: Phenotype: Inactive; Curve_Description: None
[2]
  AC50: Phenotype: Inactive; Curve_Description: None

## O=C(O[C@H]1CN[C@H](C#Cc2cc3ncnc(Nc4ccc(OCc5cccc(F)c5)c(Cl)c4)c3s2)C1)N1CCOCC1 [GW869810X]
[1]; read-out: AC50
  AC50: 20.6 µM
[2]
  AC50: Phenotype: Inactive; Curve_Description: None

## CNC(=O)Oc1cc(C)c(/C=C/c2cncc(C(=O)NC)c2)c(C)c1 [GW432441X]
[1]; read-out: AC50
  AC50: 29.1 µM
[2]
  AC50: Phenotype: Inactive; Curve_Description: None

## COc1cc(N2CCN(C(C)C)CC2)ccc1Nc1nc(Nc2cccc3ncccc23)c2cc[nH]c2n1 [GSK-1511931A]
[1]; read-out: AC50
  AC50: 25.9 µM
[2]; read-out: AC50
  AC50: 18.3 µM

## N#Cc1ccc2c(-c3ccnc(NC4CC4)n3)c(-c3ccc(F)cc3)nn2c1 [GW561436X]
[1]; read-out: AC50
  AC50: 46.1 µM
[2]
  AC50: Phenotype: Inactive; Curve_Description: None

## CCn1c(-c2nonc2N)nc2ccccc21 [GW549034X]
[1]
  AC50: Phenotype: Inactive; Curve_Description: None
[2]
  AC50: Phenotype: Inactive; Curve_Description: None

## CNC(=O)c1sc(-n2cnc3cc(OC)c(OC)cc32)cc1OCc1ccccc1C(F)(F)F [GSK-1030061A]
[1]
  AC50: Phenotype: Inactive; Curve_Description: None
[2]
  AC50: Phenotype: Inactive; Curve_Description: None

## NS(=O)(=O)c1ccc(-c2cc3ccncc3cc2OCc2ccccc2)cc1 [GSK-953913A]
[1]
  AC50: Phenotype: Inactive; Curve_Description: None
[2]; read-out: AC50
  AC50: 5.8 µM

## NCc1ccc(-n2c(-c3nonc3N)nc3cnccc32)cc1
[1]
  AC50: Phenotype: Inactive; Curve_Description: None
[2]; read-out: AC50
  AC50: 41.1 µM

## O=C1NC(=O)C(N2CCc3ccccc32)=C1c1ccc(Cl)cc1
[1]; read-out: AC50
  AC50: 6.51 µM
[2]; read-out: AC50
  AC50: 20.6 µM

## [O-][S+]1CCN(Cc2ccc(-c3ccc4ncnc(Nc5ccc(OCc6ccccc6)c(Cl)c5)c4c3)o2)CC1 [GW583373A]
[1]; read-out: AC50
  AC50: 14.6 µM
[2]; read-out: AC50
  AC50: 0.0005 µM

## COc1cccc(-n2ncc3c(N/N=C/c4ccncc4)ncnc32)c1 [GW784752X]
[1]; read-out: AC50
  AC50: 6.51 µM
[2]
  AC50: Phenotype: Activator; Curve_Description: None

## NC(=O)Cc1ccccc1Oc1nccc(-c2c(-c3ccc(F)cc3)ncn2C2CCNCC2)n1
[1]
  AC50: Phenotype: Inactive; Curve_Description: None
[2]
  AC50: Phenotype: Inactive; Curve_Description: None

## COc1cccc(-n2ncc3c(N/N=C/c4ccc(C)cc4)ncnc32)c1 [GW829877X]
[1]
  AC50: Phenotype: Inactive; Curve_Description: None
[2]
  AC50: Phenotype: Inactive; Curve_Description: None

## NS(=O)(=O)c1ccc(NC=C2C(=O)Nc3ccc4ncsc4c32)cc1 [GW589933X]
[1]
  AC50: Phenotype: Inactive; Curve_Description: None
[2]; read-out: AC50
  AC50: 16.3 µM

## Cl.[O-][S+]1CCN(Cc2ccc(-c3ccc4ncnc(Nc5ccc(OCc6ccccc6)c(F)c5)c4c3)o2)CC1 [GW576924A]
[1]; read-out: AC50
  AC50: 16.3 µM
[2]
  AC50: Phenotype: Inactive; Curve_Description: None

## Cc1c2ccc(N(C)c3ccnc(Nc4cccc(S(N)(=O)=O)c4)n3)cc2nn1C [GW771127A]
[1]; read-out: AC50
  AC50: 13 µM
[2]; read-out: AC50
  AC50: 18.3 µM

## Nc1nccc(C#Cc2cncnc2Nc2ccc(OCc3cccc(F)c3)c(Cl)c2)n1 [GW799251X]
[1]; read-out: AC50
  AC50: 14.6 µM
[2]
  AC50: Phenotype: Inactive; Curve_Description: None

## CCOc1nccc2c1nc(-c1nonc1N)n2CC
[1]
  AC50: Phenotype: Inactive; Curve_Description: None
[2]
  AC50: Phenotype: Inactive; Curve_Description: None
